Literature values in US20260248729A1, “NOVEL ORAL DOSAGE FORM” (Neon Healthcare Ltd, priority 2022, published 2026).

[1] = administered orally in the form of phenelzine sulfate

NNCCc1ccccc1 [Phenelzine, 2-phenylethylhydrazine]
Time to peak plasma concentration [1]: 43 min
half-life [1]: 11.6 h
major metabolites phenylacetic acid and parahydroxyphenylacetic acid recovered, of the excreted dose of phenelzine in the urine (over the course of 96 hours after single doses): about 73%
